The subject of one assay is S. aureus ATCC 29213. Briefly: Broth microdilution MIC. In kind it is cell-based, Staphylococcus aureus. How it is done: (§1) Antibacterial activity of compounds MDN-0057, MDN-0058, MDN-0059 and MDN-0060 was evaluated using the broth microdilution methodology. This method is used to determine minimum inhibitory concentrations (MICs) which are defined as the lowest concentration of an antimicrobial compound that will inhibit the visible growth of a microorganism after overnight incubation.
(§2) In the microbroth dilution assay, microorganisms were selected by streaking bacteria culture from a cryovial into Mueller Hinton II (MHII) agar plate(s) and incubate overnight at 37° C. Thereafter, 3 to 5 characteristic fresh colonies were selected and suspended in 25 mL of MHII broth media for 2 hours shaking at 220 rpm. The 2 hour broth cultures were adjusted to an optical density of 0.111 at 660 nm and then diluted to 1:100 in order to obtain assay inoculums.
(§3) The four compounds evaluated were serially diluted in 100% DMSO with a dilution factor of 2 to provide 10 compound concentrations starting at 8 mg/mL.
(§4) For the assays, 90 μL/well of the appropriated diluted inoculum were mixed with 1.6 μL/well of each compound concentration and 8.4 μL/well of MHII broth media, resulting in an additional dilution of these compounds to yield concentrations in the assay wells from 128 μg/mL to 0.25 μg/mL. After that, the assay plates were read in a Tecan Ultraevolution spectrophotometer at 612 nm for T0 (zero time). Then, the plates were statically incubated at 37° C. for 20 hours. After incubation, they were shaken in a DPC Micromix-5 and read again for Tf (final time). Percentage of growth inhibition was calculated using the following normalization:
(§5) % Inhibition=[1-[(TfSample-T0Sample)−(TfBlank-T0blank)/(TfGrowth-T0Growth)−(TfBlank-T0blank)]×100. • Where, • T0 Sample=the absorbance of the strain growth in the presence of sample measured at zero time (before incubation). • Tf Sample=the absorbance of the strain growth in the presence of sample measured at final time (after incubation) • T0 Growth=the absorbance of the strain growth in the absence of sample measured at zero time (before incubation). • Tf Growth=the absorbance of the strain growth in the absence of sample measured at final time (after incubation). • T0 Blank=the absorbance of the broth medium (blank) measured at zero time (before incubation). • Tf Blank=the absorbance of the broth medium (blank) measured at final time (after incubation).

In a further assay the test system is K. pneumoniae 21. Briefly: Broth microdilution MIC. In kind it is cell-based, Klebsiella pneumoniae. The note with it: K. pneumoniae 21, permeable strain. How it is done:
as §1, §2, §3, §4, §5

The next assay deals with K. pneumoniae 847. Briefly: Broth microdilution MIC. In kind it is cell-based, Klebsiella pneumoniae. The note with it: K. pneumoniae 847, Clinical isolate. How it is done:
as §1, §2, §3, §4, §5
(In general: Broth dilution looks for growth in wells or tubes with falling amounts of substance.)

A further assay has as its system P. aeruginosa 839. As to the kind of experiment: Broth microdilution MIC. In kind it is cell-based, Pseudomonas aeruginosa. The note with it: P. aeruginosa 839, ΔMexAB-OprM. How it is done:
as §1, §2, §3, §4, §5

Another assay deals with P. aeruginosa ATCC 27853. Briefly: Broth microdilution MIC. In kind it is cell-based, Pseudomonas aeruginosa. The note with it: P. aeruginosa ATCC 27853, wild type. How it is done: as §1, §2, §3, §4, §5
Assay [1] concerns Escherichia coli acrAB::Tn903 (CB-219). Briefly: Micro RI (resistance) bioassay on E. coli CB-219. Format: cell-based. The procedure:
The frequency of resistance to MDN-0057 and MDN-0058 was assessed on Escherichia coli acrAB::Tn903 (CB-219) and wild type (WT) Acinetobacter baumannii (ATCC BAA-747). For this purpose, the Minimum Inhibitory Concentration of MDN-0057 versus each strain was determined by broth microdilution as described in Clinical Laboratory Standards Institute publication M07-A9, Vol. 32, No. 2., “Methods for Dilution Antimicrobial Susceptibility Tests for Bacteria that Grow Aerobically; Approved Standard—Ninth Edition,” January 2012. Six-well plates containing Mueller Hinton II agar (5 mL per well) were prepared with MDN-0057 or MDN-0058 at concentrations 4-fold and 8-fold above the MIC. Cultures were grown to late log phase and spread on the agar. Plates were incubated at 37° C. and examined after one and two days of incubation.
Six to eight isolates from each species were obtained by re-streaking growth from the plates on antibiotic-free tryptic soy agar plates, and MICs of MDN-0057 versus the isolates were subsequently determined. MICs of the E. coli isolates were elevated at least 16-64-fold relative to their parent strain, CB-219.

Another assay has as its system E. coli ATCC 25922. As to the kind of experiment: Broth microdilution MIC. In kind it is cell-based, Escherichia coli. Particulars: E. coli ATCC 25922, wild type. The procedure:
as §1, §2, §3, §4, §5

The next assay deals with E. coli 219. As to the kind of experiment: Broth microdilution MIC. In kind it is cell-based, Escherichia coli. Particulars: E. coli 219, ΔAcrAB::Tn903kan. How it is done: as §1, §2, §3, §4, §5
The subject of assay [2] is A. baumannii ATCC BAA-747. As to the kind of experiment: Broth microdilution MIC. Format: cell-based, Acinetobacter baumannii. The note with it: A. baumannii ATCC BAA-747, Clinical isolate. The procedure: as §1, §2, §3, §4, §5
Another assay deals with A. baumannii 2445. Briefly: Broth microdilution MIC. The note with it: A. baumannii 2445, ΔadeABC. In kind it is cell-based, Acinetobacter baumannii. How it is done: as §1, §2, §3, §4, §5
For a further assay, the system named is A. baumannii 2446. Briefly: Broth microdilution MIC. Format: cell-based, Acinetobacter baumannii. Particulars: A. baumannii 2446, ΔadeABC, ΔadellJK. The procedure:
as §1, §2, §3, §4, §5

The test system of a further assay is A. baumannii 2444. As to the kind of experiment: Broth microdilution MIC. Format: cell-based, Acinetobacter baumannii. Particulars: A. baumannii 2444, ΔadellJK. How it is done:
as §1, §2, §3, §4, §5

The test system of the next assay is A. baumannii ATCC 19606. Briefly: Broth microdilution MIC. Format: cell-based, Acinetobacter baumannii. Particulars: A. baumannii ATCC 19606, Clinical isolate. The procedure: as §1, §2, §3, §4, §5
In another assay the test system is A. baumannii 2443. As to the kind of experiment: Broth microdilution MIC. Particulars: A. baumannii 2443, Clinical isolate. In kind it is cell-based, Acinetobacter baumannii. The procedure: as §1, §2, §3, §4, §5
The test system of the next assay is A. baumannii 5973. Briefly: Broth microdilution MIC. In kind it is cell-based, Acinetobacter baumannii. Particulars: A. baumannii 5973, Clinical isolate. The procedure: as §1, §2, §3, §4, §5

Converted amounts (≈) assume the structure as drawn.

What is called MIC is the lowest concentration that inhibits growth of the organism. In the case of `[C-]#[N+]C(=C)C(Cc1ccc(OC)cc1)([N+]#[C-])C1CC(O)C=CC1OC(=O)CO` (stereo not shown) [MDN-0058], the “MIC against S. aureus (No activity)” value in the assay on S. aureus ATCC 29213 came out at 128 µg/mL (≈ 335 µM). Further, the MIC in the assay on S. aureus ATCC 29213 (S. aureus ATCC 29213, wild type) is above 128 µg/mL; against K. pneumoniae 21 it was 0.5 µg/mL (≈ 1.31 µM); with K. pneumoniae 847, 64 µg/mL (≈ 167 µM); against P. aeruginosa 839 it was 1 to 4 µg/mL; against P. aeruginosa ATCC 27853, 64 µg/mL (≈ 167 µM); in assay [1] (E. coli_219, Micro RI, Isolate #1_4X), 0.25 µg/mL (≈ 0.654 µM). In addition, the MIC was 0.25 µg/mL (≈ 0.654 µM) in assay [1] (E. coli_219, Micro RI, Isolate #2_8X); 0.25 µg/mL (≈ 0.654 µM) in assay [1] (E. coli_219, Micro RI, Isolate #3_4X); 0.25 µg/mL (≈ 0.654 µM) in [1] (E. coli_219, Micro RI, Isolate #4_4X); 0.25 µg/mL (≈ 0.654 µM) in assay [1] (E. coli_219, Micro RI, Isolate #5_8X); 0.25 to 0.5 µg/mL in assay [1] (E. coli_219, Parent); 16 µg/mL (≈ 41.8 µM) in the assay on E. coli ATCC 25922. Further, the MIC with E. coli 219 was 0.25 to 0.5 µg/mL; in assay [2], 1 to 16 µg/mL; with A. baumannii 2445, 2 to 8 µg/mL; with A. baumannii 2446 it was below 0.06 µg/mL; with A. baumannii 2444, 0.25 to 1 µg/mL; in the assay with A. baumannii ATCC 19606, 2 to 8 µg/mL. For the same molecule, the MIC is 2 µg/mL (≈ 5.23 µM) against A. baumannii 2443 and 0.25 µg/mL (≈ 0.654 µM) in the assay with A. baumannii 5973.

`[C-]#[N+]C(=C)C(Cc1ccc(OC)cc1)([N+]#[C-])C1CC(O)C=CC1OC(C)=O` (stereo not shown) [MDN-0060]: the MIC in the assay on P. aeruginosa ATCC 27853 was 32 to 64 µg/mL; against A. baumannii 5973, 1 to 2 µg/mL.

In the case of `[C-]#[N+]C(=C)C(Cc1ccc(OC)cc1)([N+]#[C-])C1CC(O)CCC1OC(C)=O` (stereo not shown) [MDN-0059], the values for the MIC in the assay on P. aeruginosa ATCC 27853 and against A. baumannii 5973 were 16 µg/mL (≈ 43.4 µM) and 0.5 to 1 µg/mL, respectively.

The values are drawn from patent publication US20160185717A1, “COMPOUNDS WITH ANTIBACTERIAL ACTIVITY” (FUNDACIÓN MEDINA. CENTRO DE EXCELENCIA EN INVESTIGACIÓN DE …, priority 2013, published 2016).
